Columns and labels:
P-glycoprotein = P-glycoprotein (Homo sapiens, UniProt P08183); experiment: Rhodamine 123 transport assay across HCT-8 cell monolayers; conditions: compound 10 μM, Rh123 15 μM, HCT-8 cells; for inhibition at 10 μM: human, HCT-8 cell monolayers in Transwell dishes, probe Rhodamine 123 (15 μM), % Inhibition of R123 Transport
Method: The human ileocecal adenocarcinoma cell line HCT-8 was grown in RPMI-1640 medium supplemented with 10% horse serum, 1 mM sodium pyruvate and 0.01 mg/ml gentamicin. All cells were maintained in a humidified atmosphere with 5% CO2 at 37° C.
Rhodamine 123 transport was examined as previously described (Hunter J. et al., Simmons, Br. J. Cancer, 64: 437444 (1991); Kim A. E. et al., J. Pharm. Exp. Ther., 286: 1439-1445 (1998)) using HCT-8 cells. Particularly, cells were grown in 6 well Corning Transwell dishes until a tight monolayer was formed. Rh123 was added at a final concentration of 15 μM to the basal or apical compartments and 200 μl samples were taken at the indicated times from the opposite chamber. Fluorescence of Rh123 in the media samples was measured using a fluorescence plate reader with an excitation wavelength of 485 nm and an emission wavelength of 530 nm.

[1] = system: MDR1-expressing NIH 3T3 cells; experiment: Cytotoxicity (MTT) assay: modulation of drug cytotoxicity in multidrug resistant cells; conditions: for Modulation of Drug Resistance (percentage increase in doxorubicin cytotoxicity in the presence of the compounds versus in their absence): compound 5 μM, 50 nM doxorubicin, 72 hours, MTT
Method: Cytotoxicity assays were performed with many of the compounds of Formula I to verify their usefulness as inhibitors of P-gp.
Parental NIH3T3 Swiss mouse embryo cell line was obtained from American Type Culture Collection and was grown in Dulbecco's Modified Eagles Medium supplemented with 4.5 g/L glucose, 10% fetal bovine serum, 2 mM L-glutamine, and 0.01 mg/ml gentamicin. […] All cells were maintained in a humidified atmosphere with 5% CO2 at 37° C.
Parental and MDR1-expressing NIH 3T3 cells were plated at a density of 2.5-3.0×10^3 cells/well in 96-well microtiter plates and were exposed to 50 nM of doxoriubicin, 7.5 nM vinblastine, 75 nM colchicine or 300 nM paclitaxel for 72 hours. Cell viability was determined with the colorimetric MTT (3-(4,5-dimethylthiazol-2-yl)-2,5-diphenyl tetrazolium) assay as previously described (Mosmann T., J. Immunol. Methods, 65: 55-63 (1983); Hansen M. B. et al., J. Immunol. Methods, 119: 203-210 (1989)) and the absorbance was measured at 570 nm.

P-glycoprotein, sequence (P08183 whole entry): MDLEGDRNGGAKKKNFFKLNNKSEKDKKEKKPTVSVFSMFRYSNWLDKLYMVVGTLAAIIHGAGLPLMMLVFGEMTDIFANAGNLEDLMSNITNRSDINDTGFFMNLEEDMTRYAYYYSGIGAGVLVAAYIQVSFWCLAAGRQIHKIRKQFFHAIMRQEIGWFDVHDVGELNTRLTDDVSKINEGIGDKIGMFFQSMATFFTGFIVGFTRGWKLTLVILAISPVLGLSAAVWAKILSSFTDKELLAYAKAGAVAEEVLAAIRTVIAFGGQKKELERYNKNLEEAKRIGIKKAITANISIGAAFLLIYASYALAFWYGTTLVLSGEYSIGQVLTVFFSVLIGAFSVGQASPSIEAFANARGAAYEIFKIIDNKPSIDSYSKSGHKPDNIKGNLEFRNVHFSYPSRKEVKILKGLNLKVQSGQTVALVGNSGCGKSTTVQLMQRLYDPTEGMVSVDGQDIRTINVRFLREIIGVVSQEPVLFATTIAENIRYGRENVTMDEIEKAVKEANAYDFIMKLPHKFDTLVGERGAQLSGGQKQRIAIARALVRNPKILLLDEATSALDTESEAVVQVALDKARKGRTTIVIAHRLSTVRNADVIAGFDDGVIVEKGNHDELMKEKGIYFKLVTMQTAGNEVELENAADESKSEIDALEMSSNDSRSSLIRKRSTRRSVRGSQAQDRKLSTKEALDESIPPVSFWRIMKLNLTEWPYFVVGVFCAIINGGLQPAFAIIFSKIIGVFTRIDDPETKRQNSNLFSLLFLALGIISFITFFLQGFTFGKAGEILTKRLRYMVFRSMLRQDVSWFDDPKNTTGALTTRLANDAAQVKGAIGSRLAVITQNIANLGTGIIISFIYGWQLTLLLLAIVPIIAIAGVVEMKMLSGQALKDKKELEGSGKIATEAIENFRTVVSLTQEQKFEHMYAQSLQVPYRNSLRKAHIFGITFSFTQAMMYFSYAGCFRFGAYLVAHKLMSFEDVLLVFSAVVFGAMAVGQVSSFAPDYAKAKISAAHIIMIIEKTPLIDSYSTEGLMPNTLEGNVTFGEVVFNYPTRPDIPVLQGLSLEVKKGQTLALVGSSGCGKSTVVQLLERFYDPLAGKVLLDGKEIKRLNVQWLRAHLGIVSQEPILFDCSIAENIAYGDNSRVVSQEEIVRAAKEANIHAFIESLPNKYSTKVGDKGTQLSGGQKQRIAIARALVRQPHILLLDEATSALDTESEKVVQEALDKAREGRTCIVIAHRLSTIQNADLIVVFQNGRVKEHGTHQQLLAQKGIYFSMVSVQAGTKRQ

`COCC1C(CCN2CCN(Cc3ccccc3)CC2)c2cc(OC)c(OC)cc2C1c1ccc(OC)c(OC)c1` (stereo not drawn) [AV-178, 1-benzyl-4-{2-[3-(3,4-dimethoxyphenyl)-5,6-dimethoxy-2-methoxymethyl-indan-1-yl]-ethyl}-piperazine] was tested, and the inhibition at 10 μM (P-glycoprotein) was 79% and the “Modulation of Drug Resistance (percentage increase in doxorubicin cytotoxicity in the presence of the compounds versus in their absence)” value [1] was 54.50%.

For `COc1ccc(C2c3cc(OC)c(OC)cc3C(CC(=O)N3CCN(C(=O)OCc4ccccc4)CC3)C2C(=O)N2CCN(C(=O)OCc3ccccc3)CC2)cc1OC` (stereo not drawn) [AV-179, 4-{2-[3-(3,4-dimethoxyphenyl)-5,6-dimethoxy-2-(piperazine-1-carboxylic acid benzyl ester)-indan-1-yl]-acetyl}-piperazine-1-carboxylic acid benzyl ester], the “% Inhibition of R123 Transport” value (P-glycoprotein) was 87.7% and the “Modulation of Drug Resistance (percentage increase in doxorubicin cytotoxicity in the presence of the compounds versus in their absence)” value [1] was 58.07%.

For `COc1ccc(C2c3cc(OC)c(OC)cc3C(CC(=O)N3CCN(C(=O)OC(C)(C)C)CC3)C2C(=O)N2CCN(C(=O)OC(C)(C)C)CC2)cc1OC` (stereo not drawn) [AV-180, 4-{2-[3-(3,4-dimethoxyphenyl)-5,6-dimethoxy-2-(piperazine-1-carboxylic acid t-butyl ester)-indan-1-yl]-acetyl}-piperazine-1-carboxylic acid t-butyl ester], the “% Inhibition of R123 Transport” value (P-glycoprotein) was 40.4% and the “Modulation of Drug Resistance (percentage increase in doxorubicin cytotoxicity in the presence of the compounds versus in their absence)” value [1] was 42.84%.

With `COc1ccc(C2c3cc(OC)c(OC)cc3C(CC(=O)N(C)C)C2C(=O)N(C)C)cc1OC` (stereo not drawn) [AV-181, 1-(3,4-dimethoxyphenyl)-3-dimethylcarbamoylmethyl-5,6-dimethoxy-indan-2-carboxylic acid dimethyl amide] the inhibition at 10 μM (P-glycoprotein) was 6% and the “Modulation of Drug Resistance (percentage increase in doxorubicin cytotoxicity in the presence of the compounds versus in their absence)” value [1] was 6.13%.

With `CCN(CC)C(=O)CC1c2cc(OC)c(OC)cc2C(c2ccc(OC)c(OC)c2)C1C(=O)N(CC)CC` (stereo not drawn) [AV-182, 1-(3,4-dimethoxyphenyl)-3-diethylcarbamoylmethyl-5,6-dimethoxy-indan-2-carboxylic acid diethyl amide] the inhibition at 10 μM (P-glycoprotein) was 25% and the “Modulation of Drug Resistance (percentage increase in doxorubicin cytotoxicity in the presence of the compounds versus in their absence)” value [1] was 23.87%.

For `COc1ccc(N2CCN(CCC3c4cc(OC)c(OC)cc4C(c4ccc(OC)c(OC)c4)C3CN3CCN(c4ccc(OC)cc4)CC3)CC2)cc1` (stereo not drawn) [AV-183, 2-{3-(3,4-dimethoxyphenyl)-5,6-dimethoxy-2-[4-(4-methoxy)-piperazin-1-yl-methyl]-indan-1-yl}-1-[4-(4-methoxyphenyl)-piperazin-1-yl]-ethane], the “% Inhibition of R123 Transport” value (P-glycoprotein) was 63.0% and the “Modulation of Drug Resistance (percentage increase in doxorubicin cytotoxicity in the presence of the compounds versus in their absence)” value [1] was 52.24%.

In the case of `CCOc1ccccc1N1CCN(CCC2c3cc(OC)c(OC)cc3C(c3ccc(OC)c(OC)c3)C2CN2CCN(c3ccccc3OCC)CC2)CC1` (stereo not drawn) [AV-184, 2-{3-(3,4-dimethoxyphenyl)-5,6-dimethoxy-2-[4-(2-ethoxyphenyl)-piperazin-1-yl-methyl]-indan-1-yl}-1-[4-(2-ethoxyphenyl)-piperazin-1-yl]-ethane], the inhibition at 10 μM (P-glycoprotein) is reported as 53.7% and the “Modulation of Drug Resistance (percentage increase in doxorubicin cytotoxicity in the presence of the compounds versus in their absence)” value [1] is reported as 50.58%.

In the case of `COc1ccc(C2c3cc(OC)c(OC)cc3C(CC(=O)N3CCNCC3)C2C(=O)N2CCNCC2)cc1OC` (stereo not drawn) [AV-185, 2-[3-(3,4-dimethoxyphenyl)-5,6-dimethoxy-2-(piperazine-1-carbonyl)-indan-1-yl]-1-piperazin-1-yl-ethanone], the inhibition at 10 μM (P-glycoprotein) is reported as 25.1% and the “Modulation of Drug Resistance (percentage increase in doxorubicin cytotoxicity in the presence of the compounds versus in their absence)” value [1] is reported as 18.48%.

For `COc1ccc(C2c3cc(OC)c(OC)cc3C(CCN3CCN(c4ccc(Cl)cc4)CC3)C2CN2CCN(c3ccc(Cl)cc3)CC2)cc1OC` (stereo not drawn) [AV-186, 2-{3-(3,4-dimethoxyphenyl)-5,6-dimethoxy-2-[4-(4-chlorophenyl)-piperazin-1-yl-methyl]-indan-1-yl}-1-[4-(4-chlorophenyl)-piperazin-1-yl]-ethane], the inhibition at 10 μM (P-glycoprotein) was 65.8% and the “Modulation of Drug Resistance (percentage increase in doxorubicin cytotoxicity in the presence of the compounds versus in their absence)” value [1] was 64.87%.

`CCN1CCN(C(=O)CC2c3cc(OC)c(OC)cc3C(c3ccc(OC)c(OC)c3)C2C(=O)N2CCN(CC)CC2)CC1` (stereo not drawn) [AV-187, 2-[3-(3,4-dimethoxyphenyl)-5,6-dimethoxy-2-(4-ethylpiperazine-1-carbonyl)-indan-1-yl]-1-(4-ethylpiperazin-1-yl)-ethanone] was tested, and the inhibition at 10 μM (P-glycoprotein) was 2.7% and the “Modulation of Drug Resistance (percentage increase in doxorubicin cytotoxicity in the presence of the compounds versus in their absence)” value [1] was 23.50%.

In the case of `COc1ccc(C2c3cc(OC)c(OC)cc3C(CC(=O)N3CCN(c4ccccc4OC)CC3)C2C(=O)N2CCN(c3ccccc3OC)CC2)cc1OC` (stereo not drawn) [AV-188, 2-{3-(3,4-dimethoxyphenyl)-5,6-dimethoxy-2-[4-(2-methoxyphenyl)-piperazin-1-carbonyl]-indan-1-yl}-1-[4-(2-methoxy-phenyl)-1-yl]-ethanone], the “% Inhibition of R123 Transport” value (P-glycoprotein) is reported as 87.6% and the “Modulation of Drug Resistance (percentage increase in doxorubicin cytotoxicity in the presence of the compounds versus in their absence)” value [1] is reported as 75.39%.

With `CCCN(CCC)C(=O)CC1c2cc(OC)c(OC)cc2C(c2ccc(OC)c(OC)c2)C1C(=O)N(CCC)CCC` (stereo not drawn) [AV-189, 1-(3,4-dimethoxyphenyl)-3-dipropylcarbamoylmethyl-5,6-dimethoxy-indan-2-carboxylic acid dipropyl amide] the inhibition at 10 μM (P-glycoprotein) was 60% and the “Modulation of Drug Resistance (percentage increase in doxorubicin cytotoxicity in the presence of the compounds versus in their absence)” value [1] was 64.78%.

For `CCCCN(CCCC)C(=O)CC1c2cc(OC)c(OC)cc2C(c2ccc(OC)c(OC)c2)C1C(=O)N(CCCC)CCCC` (stereo not drawn) [AV-190, 1-(3,4-dimethoxyphenyl)-3-dibutylcarbamoylmethyl-5,6-dimethoxy-indan-2-carboxylic acid dibutyl amide], the inhibition at 10 μM (P-glycoprotein) was 52.2% and the “Modulation of Drug Resistance (percentage increase in doxorubicin cytotoxicity in the presence of the compounds versus in their absence)” value [1] was 65.35%.

With `COc1ccc(C2c3cc(OC)c(OC)cc3C(CC(=O)N(CC(C)C)CC(C)C)C2C(=O)N(CC(C)C)CC(C)C)cc1OC` (stereo not drawn) [AV-191, 1-[(diisobutylcarbamoyl)methyl]-3-(3,4-dimethoxyphenyl)-5,6-dimethoxy-indan-2-carboxylic acid diisobutylamide] the inhibition at 10 μM (P-glycoprotein) was 64.9% and the “Modulation of Drug Resistance (percentage increase in doxorubicin cytotoxicity in the presence of the compounds versus in their absence)” value [1] was 63.49%.

With `CCCCC(CC)CN(CC(CC)CCCC)C(=O)CC1c2cc(OC)c(OC)cc2C(c2ccc(OC)c(OC)c2)C1C(=O)N(CC(CC)CCCC)CC(CC)CCCC` (stereo not drawn) [AV-192, 1-{[bis(2-ethylhexyl)carbamoyl]methyl}-3-(3,4-dimethoxyphenyl)-5,6-dimethoxy-indan-2-carboxylic acid bis(2-ethylhexyl) amide] the inhibition at 10 μM (P-glycoprotein) was 20.2% and the “Modulation of Drug Resistance (percentage increase in doxorubicin cytotoxicity in the presence of the compounds versus in their absence)” value [1] was 19.61%.

For `CCCCCCN(CCCCCC)C(=O)CC1c2cc(OC)c(OC)cc2C(c2ccc(OC)c(OC)c2)C1C(=O)N(CCCCCC)CCCCCC` (stereo not drawn) [AV-193, 1-(3,4-dimethoxyphenyl)-3-dihexylcarbamoylmethyl-5,6-dimethoxy-indan-2-carboxylic acid dihexyl amide], the inhibition at 10 μM (P-glycoprotein) was 11.8% and the “Modulation of Drug Resistance (percentage increase in doxorubicin cytotoxicity in the presence of the compounds versus in their absence)” value [1] was 25.20%.

`COCC1C(CCN2CCN(c3ccccc3)CC2)c2cc(OC)c(OC)cc2C1c1ccc(OC)c(OC)c1` (stereo not drawn) [AV-198, 1-{-2-[3-(3,4-dimethoxyphenyl)-5,6-dimethoxy-2-methoxymethyl-indan-1-yl]-ethyl}-4-phenylpiperazine] was tested, and the inhibition at 10 μM (P-glycoprotein) was 84.7% and the “Modulation of Drug Resistance (percentage increase in doxorubicin cytotoxicity in the presence of the compounds versus in their absence)” value [1] was 58.65%.

`COCC1C(CCN2CCN(c3ccc(OC)cc3)CC2)c2cc(OC)c(OC)cc2C1c1ccc(OC)c(OC)c1` (stereo not drawn) [AV-199, 1-{-2-[3-(3,4-dimethoxyphenyl)-5,6-dimethoxy-2-methoxymethyl-indan-1-yl]-ethyl}-4-(4-methoxyphenyl)-piperazine] was tested, and the inhibition at 10 μM (P-glycoprotein) was 84% and the “Modulation of Drug Resistance (percentage increase in doxorubicin cytotoxicity in the presence of the compounds versus in their absence)” value [1] was 61.63%.

With `COCC1C(CCN2CCN(C(=O)OCc3ccccc3)CC2)c2cc(OC)c(OC)cc2C1c1ccc(OC)c(OC)c1` (stereo not drawn) [AV-200, 4-{2-[3-(3,4-dimethoxyphenyl)-5,6-dimethoxy-2-methoxymethyl-indan-1-yl]-ethyl}-piperazine-1-carboxylic acid benzyl ester] the inhibition at 10 μM (P-glycoprotein) was 86.4% and the “Modulation of Drug Resistance (percentage increase in doxorubicin cytotoxicity in the presence of the compounds versus in their absence)” value [1] was 61.40%.

With `COCC1C(CCN2CCN(c3ccc(F)cc3)CC2)c2cc(OC)c(OC)cc2C1c1ccc(OC)c(OC)c1` (stereo not drawn) [AV-201, 1-{-2-[3-(3,4-dimethoxyphenyl)-5,6-dimethoxy-2-methoxymethyl-indan-1-yl]-ethyl}-4-(4-fluorophenyl)-piperazine] the inhibition at 10 μM (P-glycoprotein) was 83.8% and the “Modulation of Drug Resistance (percentage increase in doxorubicin cytotoxicity in the presence of the compounds versus in their absence)” value [1] was 66.44%.

In the case of `COCC1C(CCN2CCN(c3ccccc3OC)CC2)c2cc(OC)c(OC)cc2C1c1ccc(OC)c(OC)c1` (stereo not drawn) [AV-202, 1{-2-[3-(3,4-dimethoxyphenyl)-5,6-dimethoxy-2-methoxymethyl-indan-1-yl]-ethyl}-4-(2-methoxyphenyl)-piperazine], the inhibition at 10 μM (P-glycoprotein) is reported as 88.4%, the “Modulation of Drug Resistance (percentage increase in doxorubicin cytotoxicity in the presence of the compounds versus in their absence)” value [1] is reported as 59.68% and the “dose responsive sensitization of multidrug resistant cells to doxorubicin (FIG. 5)” value ([1]; doxorubicin 0-750 nM, compound 50-1000 nM) is reported as “dose responsive sensitization”. For the same compound, the “dose response inhibition of P-glycoprotein in the presence of vinblastine (FIG. 6)” value ([1]; vinblastine 0-100 nM, compound 50-1000 nM) was “dose response data inhibition of P-glycoprotein”.

In the case of `COCC1C(CCN2CCN(c3ccc(C(C)=O)cc3)CC2)c2cc(OC)c(OC)cc2C1c1ccc(OC)c(OC)c1` (stereo not drawn) [AV-203], the “% Inhibition of R123 Transport” value (P-glycoprotein) is reported as 77.9% and the “Modulation of Drug Resistance (percentage increase in doxorubicin cytotoxicity in the presence of the compounds versus in their absence)” value [1] is reported as 84.65%.

`CCOc1ccccc1N1CCN(C(=O)CC2c3cc(OC)c(OCc4ccccc4)cc3C(c3ccc(OCc4ccccc4)c(OC)c3)C2C(=O)N2CCN(c3ccccc3OCC)CC2)CC1` (stereo not drawn) [AV-205, 2-{5-benzyloxy-3-(4-benzyloxy-3-methoxyphenyl)-2-{4-(2-ethoxyphenyl)-piperazine-1-carbonyl}-6-methoxy-indan-1-yl}-1-{4-(2-ethoxyphenyl)-piperazin-1-yl]-ethanone] was tested, and the inhibition at 10 μM (P-glycoprotein) was 53.6% and the “Modulation of Drug Resistance (percentage increase in doxorubicin cytotoxicity in the presence of the compounds versus in their absence)” value [1] was 35.56%.
